The record followed here is PubChem BioAssay (NCI).

Among the test systems are SF-295 CNS; PC-3 prostate; OVCAR-3 ovarian; HS 578T breast; K-562 leukemia; SNB-19 CNS; IGROV1 ovarian; HCC-2998 colon.
What all share (experiment): NCI anticancer screen, dose series, 48 h

Each structure is given as a SMILES string.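 Exposure lasted 48 hours, with cells grown in 96-well plates and compounds tested at five concentrations. At the GI50, growth is halved. TGI: total growth inhibition.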

`COc1cc(CNc2nc3cc(N)cc(N)c3nc2-c2ccccc2)cc(OC)c1`: the GI50 was 14.2 µM in the experiment on SF-295 CNS; 3.05 µM in the experiment on PC-3 prostate; 1.86 µM with OVCAR-3 ovarian; 8.53 µM with HS 578T breast; 3.6 µM in the experiment on K-562 leukemia; 23.4 µM in the experiment on SNB-19 CNS. For the same compound, the GI50 in the experiment on IGROV1 ovarian was 8.62 µM. The TGI with SF-295 CNS is 35.1 µM; in the experiment with PC-3 prostate it was 14.4 µM; in the experiment with OVCAR-3 ovarian, 4.52 µM; in the experiment with HS 578T breast, over 100 µM; with K-562 leukemia, 9.23 µM; with SNB-19 CNS, over 100 µM. This compound returned a TGI in the experiment with IGROV1 ovarian of 55.7 µM.
Regarding `CC(=O)O[C@H]1C(=O)[C@@]2(C)C([C@H](OC(=O)c3ccccc3)[C@]3(O)C[C@H](OC(=O)[C@H](O)[C@@H](NC(=O)c4ccccc4)c4ccccc4)C(C)=C1C3(C)C)[C@]1(OC(C)=O)CO[C@@H]1C[C@@H]2O` (some centres not stated), the GI50 with HCC-2998 colon is 0.00868 µM; in the experiment with SF-295 CNS, 0.0173 µM; with PC-3 prostate, 0.0129 µM; in the experiment with OVCAR-3 ovarian, 0.0056 µM; with K-562 leukemia, 0.00596 µM; in the experiment with SNB-19 CNS, 0.0135 µM. The GI50 with IGROV1 ovarian was 0.41 µM. Besides, the TGI is over 50 µM in the experiment on SF-295 CNS; over 50 µM with PC-3 prostate; 0.0589 µM with OVCAR-3 ovarian; over 50 µM with HS 578T breast; over 50 µM in the experiment on K-562 leukemia; over 50 µM in the experiment on SNB-19 CNS. The same compound returned a TGI with IGROV1 ovarian of over 50 µM.
On to `COc1ccc2c(c1)c(-c1nc(-c3c[nH]c4ncccc34)cs1)cn2CCCN1CCOCC1`, for which the GI50 was 2.04 µM with HCC-2998 colon; 1.91 µM in the experiment on SF-295 CNS; 2.48 µM in the experiment with PC-3 prostate; 2.57 µM with OVCAR-3 ovarian; 2.08 µM in the experiment with HS 578T breast; 2.08 µM in the experiment on K-562 leukemia. Also, the GI50 with SNB-19 CNS was 2.86 µM; in the experiment with IGROV1 ovarian it was 2.09 µM. In addition, the TGI in the experiment on HCC-2998 colon is 4.34 µM; with SF-295 CNS, 4.17 µM; in the experiment with PC-3 prostate it was 8.68 µM; in the experiment on OVCAR-3 ovarian, 7.93 µM; with HS 578T breast, 6.92 µM; in the experiment on K-562 leukemia, 4.95 µM. Moreover, the TGI amounted to 8.71 µM with SNB-19 CNS and 8.69 µM with IGROV1 ovarian.
Consider `CC(=O)ON1CCCC(P(=O)(OCOC(=O)C(C)(C)C)OCOC(=O)C(C)(C)C)C1=O` (configuration not stated), for which the GI50 in the experiment on HCC-2998 colon is 0.803 µM; in the experiment with SF-295 CNS, 2.37 µM; in the experiment on PC-3 prostate, 1.23 µM; with OVCAR-3 ovarian it was 0.775 µM; in the experiment with HS 578T breast, 0.603 µM; with K-562 leukemia, 0.303 µM. Moreover, the GI50 in the experiment on SNB-19 CNS was 0.583 µM; with IGROV1 ovarian it was 0.374 µM. The TGI in the experiment with HCC-2998 colon is 3.5 µM; with SF-295 CNS, 29 µM; in the experiment with PC-3 prostate, 17.4 µM; in the experiment with OVCAR-3 ovarian, 4.49 µM; in the experiment on HS 578T breast, 4.4 µM; in the experiment on K-562 leukemia, over 87.2 µM. For the same compound, the TGI in the experiment on SNB-19 CNS amounted to 4.74 µM; with IGROV1 ovarian, 1.84 µM.
For the compound `COc1ccc(OC)c(NCC(=O)n2nc(/C=C\c3ccc(O)c(OC)c3)cc2/C=C\c2ccc(O)c(OC)c2)c1`, the GI50 is 2.04 µM in the experiment with HCC-2998 colon; 2.44 µM with SF-295 CNS; 2.52 µM with PC-3 prostate; 2.58 µM with OVCAR-3 ovarian; 2.31 µM with HS 578T breast; 0.729 µM with K-562 leukemia. Moreover, the results for the GI50 in the experiment on SNB-19 CNS and in the experiment with IGROV1 ovarian were 2.62 µM and 2.91 µM, respectively. Also, the TGI was 3.98 µM with HCC-2998 colon; 6.08 µM in the experiment with SF-295 CNS; over 100 µM in the experiment with PC-3 prostate; 13.9 µM in the experiment with OVCAR-3 ovarian; 19.2 µM in the experiment on HS 578T breast; over 100 µM in the experiment on K-562 leukemia. Also, the TGI in the experiment on SNB-19 CNS turned out to be 10.3 µM; in the experiment on IGROV1 ovarian, 21 µM.
As to `O=C(Nc1ccc(N=C=S)cc1Cl)c1cc(Br)cc(Br)c1O`, the TGI in the experiment with SF-295 CNS is over 100 µM; in the experiment with PC-3 prostate, 54.5 µM; with OVCAR-3 ovarian, over 100 µM; in the experiment on HS 578T breast, 69.4 µM; in the experiment with K-562 leukemia, 97.1 µM; with SNB-19 CNS, 64.3 µM. This compound also displayed a TGI in the experiment with IGROV1 ovarian of 39.8 µM.
For the compound `CSC1=Nc2c(c(C)c(C)n2COC(CO)CO)C2=NC(=O)CN12`, the GI50 in the experiment with HCC-2998 colon, with SF-295 CNS, with PC-3 prostate, in the experiment with OVCAR-3 ovarian, with HS 578T breast and in the experiment on K-562 leukemia was over 100 µM in each case. The GI50 in the experiment with SNB-19 CNS is over 100 µM. Further, the TGI in the experiment on HCC-2998 colon, in the experiment with SF-295 CNS, in the experiment with PC-3 prostate, with OVCAR-3 ovarian, in the experiment on HS 578T breast and with K-562 leukemia was over 100 µM each time. Further, in the experiment with SNB-19 CNS, the TGI was over 100 µM.
Consider `O=C(OCc1ccc2c(Br)cc(Br)c(O)c2n1)c1cc2ccccc2[nH]1`, for which the GI50 is 1.57 µM in the experiment with HCC-2998 colon; 3.32 µM in the experiment on SF-295 CNS; 0.965 µM in the experiment with PC-3 prostate; 0.281 µM in the experiment on OVCAR-3 ovarian; 1.24 µM in the experiment with HS 578T breast; 0.398 µM in the experiment with K-562 leukemia. For the same compound, the GI50 was 1.8 µM in the experiment on SNB-19 CNS and 0.66 µM in the experiment on IGROV1 ovarian. The TGI with HCC-2998 colon was 3.1 µM; in the experiment on SF-295 CNS, 7.68 µM; in the experiment with PC-3 prostate, 2.68 µM; with OVCAR-3 ovarian, 0.921 µM; in the experiment with HS 578T breast it was 3.87 µM; in the experiment with K-562 leukemia it was over 40 µM. The results for the TGI in the experiment with SNB-19 CNS and in the experiment on IGROV1 ovarian were 4.09 µM and 1.91 µM, respectively.
For the compound `O=C1Oc2ccccc2C(=O)/C1=C1/C=C(c2ccccc2)SS1`, the TGI with HCC-2998 colon, in the experiment with SF-295 CNS, with PC-3 prostate, in the experiment with OVCAR-3 ovarian, in the experiment on HS 578T breast and with K-562 leukemia was over 100 µM in each case. The TGI with SNB-19 CNS and with IGROV1 ovarian was over 100 µM each time.
As for `O=C(/C=C/C12c3ccccc3C(c3ccccc31)C1C(=O)NC(=O)C12)c1ccccn1` (configuration not stated), the GI50 is 1.88 µM in the experiment with HCC-2998 colon; 1.61 µM in the experiment on SF-295 CNS; 1.67 µM in the experiment on PC-3 prostate; 1.45 µM in the experiment on OVCAR-3 ovarian; 3.2 µM in the experiment with HS 578T breast; 1.37 µM with K-562 leukemia. Also, the figures for the GI50 in the experiment with SNB-19 CNS and in the experiment with IGROV1 ovarian were 1.53 µM and 1.36 µM, respectively. In addition, the TGI in the experiment with HCC-2998 colon stood at 3.51 µM; in the experiment on SF-295 CNS it was 3.49 µM; in the experiment with PC-3 prostate, 4.46 µM; with OVCAR-3 ovarian, 2.88 µM; in the experiment with HS 578T breast, 23 µM; with K-562 leukemia it was 18.1 µM. The figures for the TGI in the experiment with SNB-19 CNS and with IGROV1 ovarian were 3.22 µM and 6.53 µM, respectively.
